What all share (assay): Michaelis-Menten kinetics, yeast microsomes, HPLC of product […]
For assay [1], the system named is T1, HpRPThxa.
T1 construct: gene RPThxa; full-length, 1173 bp ORF, pESC-URA, yeast INVSc1 microsomes
The format is biochemical, Hypericum perforatum. Particulars: Mg2+, optimum pH 9.0-9.5, 40 °C, read-out: apparent KM.

Assay [2] has as its system T2, HsRPThxa.
T2 construct: gene RPThxa; full-length, 1176 bp ORF, pESC-URA, yeast INVSc1 microsomes
The class given is biochemical, Hypericum sampsonii. Particulars: Mg2+, optimum pH 9.0-9.5, 35 °C, read-out: apparent KM.

The subject of assay [3] is T3, HsRPThxa-tr.
T3 construct: gene RPThxa; lacks the N-terminal 24 residues (transit peptide), yeast microsomes
The class given is biochemical, Hypericum sampsonii. Particulars: optimum pH 9.0-10.0, 40 °C, read-out: apparent KM.

The mark [4] stands for this setting: formation of hyperixanthone A (C-4 reverse prenylation), co-substrate DMAPP.

Read-outs that look alike come from different tables or passages of the source.

The Km is the concentration of substrate that gives half-maximal velocity.

As to `CC(C)=CCC1(CC=C(C)C)C(=O)C(O)=Cc2oc3cc(O)cc(O)c3c(=O)c21` [compound 2, patulone], the Km in assay [1] (setting [4]) came to 46 ± 4.43 µM; in assay [2] (setting [4]), 52.4 ± 4.16 µM; in assay [3] (co-substrate DMAPP), 31.3 ± 4.05 µM.
In the case of `CC(C)=CCOP(=O)(O)OP(=O)(O)O` [DMAPP], the Michaelis constant (Km) in assay [1] (co-substrate patulone) was found to be 260 ± 22.9 µM; in assay [2] (co-substrate patulone), 102 ± 6.35 µM; in assay [3] (co-substrate patulone), 30.9 ± 2.58 µM.

These data come from article PMC12172877, “Reverse prenylation in plants by non‐canonical aromatic prenyltransferases” (The Plant Journal, 2025).
